Tested on: DuNN MTAP KO cells
Experiment: In vivo pharmacodynamic study in C3H mouse model of tibial orthotopic xenograft with DuNN MTAP KO cells
Conditions: for Tumor volume (mean): tibial orthotopic DuNN MTAP KO tumor, compound D 1 mg/kg PO QD, PD-1 antibody 5 mg/kg I.P. QW, n=6
Protocol: Example 1: In Vivo Pharmacodynamic Study of Compound D in C3H Mouse Model of Tibial Orthotopic Xenograft with DuNN MTAP KO Cells
Cell culture: […] DuNN MTAP KO cells (provided by the Experimental Animal Center of Shanghai First People's Hospital) were cultured in vitro monolayer under the conditions of adding 10% fetal bovine serum and 1% Antibiotic-Antimycotic to DMEM medium, and culturing in a 5% CO2 incubator at 37° C. Pancreatin-EDTA was used twice a week for routine digestion and passage. When the cell saturation is 80%-90% and the number of cells reached the requirement, the cells were collected, counted, and inoculated.
Animals: C3H normal mice, female, 4-6 weeks old, weighing 18-22 g. A total of 30 animals were required (24 enrolled, surplus).
Tumor inoculation: DUNN cells were digested with 0.25% pancreatin-EDTA solution to make them into a single cell suspension, washed with PBS buffer and the cell density was adjusted to 1×10^7/ml for further use. On the day of the experiment, mice were intraperitoneally injected with 0.5% sodium pentobarbital solution at a dose of 40 mg/kg to anesthetize them. A bone hole with a diameter of about 1 mm was drilled in the upper end of the right hindlimb tibia with a 1 ml syringe to reach the marrow cavity. Be careful not to penetrate the contralateral cortical bone and cause fractures or bleeding. A 1 ml syringe and a 25 G needle were used to draw the DUNN cell suspension and it was slowly injected into the tibial bone marrow cavity of the experimental group mice at a dose of 30 μl. Be careful not to cause cell reflux or leakage. After injection, the surgical field was disinfected with 75% alcohol, and the mice were returned to their cages, covered with sterile dressings, kept warm until they woke up, and then continued to be housed for observation. Randomized dosing began when the average tumor volume reached about 150 mm^3. At the end of the experiment, mice were intraperitoneally injected with 0.5% sodium pentobarbital solution at a dose of 120 mg/kg to euthanize them. Their tibia and tumor tissues were removed, fixed with 10% formaldehyde, paraffin sections were made, stained with HE, and the histological morphology and invasion of the tumors were observed under a microscope. The expression of proliferation indicators such as Ki-67 and PCNA in tumor cells was detected by immunohistochemistry.
Administering volume: 10 μL/g based on the weight of mice. If the weight loss exceeds 15%, stop administering immediately and resume it after the weight loss returns to less than 10%.
Animal grouping: Animals were weighed before administration and tumor volumes were measured. Randomized grouping was based on tumor volumes (randomized block design).
Experimental indicators: were used to examine whether tumor growth was inhibited, delayed or cured. The tumor diameter was measured twice a week with a vernier caliper. The calculation equation for tumor volumes is: V=0.5a×b^2, where a and b represent the major and minor diameters of the tumor, respectively.
The antitumor efficacy of the compound was evaluated by TGI (%) or tumor proliferation rate T/C (%). TGI (%) reflects the tumor growth inhibition. Calculation of TGI (%): TGI (%)=[1−(average tumor volume at the end of administering in a treatment group-average tumor volume at the start of administering in this treatment group)/(average tumor volume at the end of treatment in the solvent control group-average tumor volume at the start of treatment in the solvent control group)]×100%.
Tumor proliferation rate T/C (%): The calculation equation is as follows: T/C (%)=Ti/Vi×100%. Where Vi is the average tumor volume of the solvent control group at a certain measurement, and Ti is the average tumor volume of the treatment group at the same measurement. […]

## CN(C(=O)c1cc2c(cc1F)nc(N)c1cncn12)[C@@H]1COc2cc(C(F)(F)F)ccc21 [Compound D]
25-day study, compound D 1 mg/kg oral once daily, anti-PD-1 antibody 5 mg/kg intraperitoneal, C3H mice, DUNN tibial orthotopic model
  tumor growth inhibition (TGI): 30.9%
Day 0, C3H mice
  Tumor volume (mean): 21.6 mm^3
Day 4, C3H mice
  Tumor volume (mean): 35.7 mm^3
Day 7, C3H mice
  Tumor volume (mean): 41.3 mm^3
Day 10, C3H mice
  Tumor volume (mean): 52.2 mm^3
Day 14, C3H mice
  Tumor volume (mean): 68.7 mm^3
Day 18, C3H mice
  Tumor volume (mean): 85.2 mm^3
Day 21, C3H mice
  Tumor volume (mean): 136.9 mm^3
Day 25, C3H mice
  Tumor volume (mean): 225.6 mm^3
one-way ANOVA, 25-day study, same doses
  statistical significance (P) vs. control: did not reach statistical significance
